According to US8124610B2, “Sodium channel inhibitors” (Icagen Inc., priority 2007, dated 2012):
pIC50: −log10 of the molar value.

Target: T1, hSCN9A (Homo sapiens, UniProt Q15858)
T1 construct: expressed in transfected cells
Test: Whole-cell patch-clamp electrophysiology (conventional or PatchXpress), HEK cells expressing hSCN9A, estimated IC-50
Assay type: cell-based
Conditions: estimated IC-50, HEK cells expressing hSCN9A; class symbols or bounds; read-out: SCN9A EIC-50
Protocol: Human Embryonic Kidney (HEK) cells were transfected with hSCN3A or hSCN9A constructs using lipofectamine reagent (Invitrogen), using standard techniques. Cells stably expressing the hSCN3A or hSCN9A constructs were identified by their resistance to G-418 (400 μg/ml). Clones were screened for expression using the whole-cell voltage-clamp technique. HEK cells stably transfected with hSCN3A or hSCN9A were maintained in DMEM medium supplemented with 10% heat-inactivated fetal bovine serum and 400 μg/ml G418 sulfate in an incubator at 37° C. with a humidified atmosphere of 10% CO2. For HTS, cells were harvested from flasks by trypsinization and replated in an appropriate multi-well plate (typically 96 or 384 wells/plate) such that confluence would be achieved within 24 hours of plating. For electrophysiological studies, cells were removed from the culture flask by brief trypsinization and replated at low density onto glass cover slips. Cells were typically used for electrophysiological experiments within 24 to 72 h after plating. Cover slips containing HEK cells expressing hSCN3A or hSCN9A were placed in a bath on the stage of an inverted microscope and perfused (approximately 1 ml/min) with extracellular solution of the following composition: 138 mM NaCl, 2 mM CaCl2, 5.4 mM KCl, 1 mM MgCl2, 10 mM glucose, and 10 mM HEPES, pH 7.4, with NaOH. […] All recordings were made at room temperature (22-24° C.) using AXOPATCH 200B amplifiers and PCLAMP software (Axon Instruments, Burlingame, Calif.) or PatchXpress 7000 hardware and associated software (Axon Instruments, Burlingame, Calif.). hSCN3A or hSCN9A currents in HEK cells were measured using the whole-cell configuration of the patch-clamp technique (Hamill et al., 1981). […] As a result, voltage errors were negligible and no correction was applied. Current records were acquired at 20 to 50 KHz and filtered at 5 to 10 KHz. HEK cells stably transfected with hSCN3A or hSCN9A were viewed under Hoffman contrast optics and placed in front of an array of flow pipes emitting either control or compound-containing extracellular solutions. All compounds were dissolved in dimethyl sulfoxide to make 10 mM stock solutions, which were then diluted into extracellular solution to attain the final concentrations desired. […] The voltage-dependence of inactivation was determined by applying a series of depolarizing prepulses (8 sec long in 10 mV increments) from a negative holding potential. The voltage was then immediately stepped to 0 mV to assess the magnitude of the sodium current. Currents elicited at 0 mV were plotted as a function of prepulse potential to allow estimation of the voltage midpoint of inactivation (V1/2). Cells were then voltage clamped at the empirically determined V1/2. Compounds were tested for their ability to inhibit hSCN3A or hSCN9A sodium channels by activating the channel with a 20 msec voltage step to 0 mV following an 8 second conditioning prepulse to the empirically determined V1-2 (Table B). Compound effect (% inhibition) was determined by difference in current amplitude before and after application of test compounds. […] In some cases electrophysiological assays were conducted with PatchXpress 7000 hardware and associated software (Molecular Devices Corp) (Table B). All assay buffers and solutions were identical to those used in conventional whole-cell voltage clamp experiments described above. hSCN3A or hSCN9A containing cells were grown as above to 50%-80% confluency and harvested by trypsinization. Trypsinized cells were washed and resuspended in extracellular buffer at a concentration of 1×10^6 cells/ml. The onboard liquid handling facility of the PatchXpress was used for dispensing cells and application of test compounds. Determination of the voltage midpoint of inactivation was as described for conventional whole-cell recordings. Cells were then voltage-clamped to the empirically determined V1/2 and current was activated by a 20 msec voltage step to 0 mV.

T1 sequence (Q15858 whole entry): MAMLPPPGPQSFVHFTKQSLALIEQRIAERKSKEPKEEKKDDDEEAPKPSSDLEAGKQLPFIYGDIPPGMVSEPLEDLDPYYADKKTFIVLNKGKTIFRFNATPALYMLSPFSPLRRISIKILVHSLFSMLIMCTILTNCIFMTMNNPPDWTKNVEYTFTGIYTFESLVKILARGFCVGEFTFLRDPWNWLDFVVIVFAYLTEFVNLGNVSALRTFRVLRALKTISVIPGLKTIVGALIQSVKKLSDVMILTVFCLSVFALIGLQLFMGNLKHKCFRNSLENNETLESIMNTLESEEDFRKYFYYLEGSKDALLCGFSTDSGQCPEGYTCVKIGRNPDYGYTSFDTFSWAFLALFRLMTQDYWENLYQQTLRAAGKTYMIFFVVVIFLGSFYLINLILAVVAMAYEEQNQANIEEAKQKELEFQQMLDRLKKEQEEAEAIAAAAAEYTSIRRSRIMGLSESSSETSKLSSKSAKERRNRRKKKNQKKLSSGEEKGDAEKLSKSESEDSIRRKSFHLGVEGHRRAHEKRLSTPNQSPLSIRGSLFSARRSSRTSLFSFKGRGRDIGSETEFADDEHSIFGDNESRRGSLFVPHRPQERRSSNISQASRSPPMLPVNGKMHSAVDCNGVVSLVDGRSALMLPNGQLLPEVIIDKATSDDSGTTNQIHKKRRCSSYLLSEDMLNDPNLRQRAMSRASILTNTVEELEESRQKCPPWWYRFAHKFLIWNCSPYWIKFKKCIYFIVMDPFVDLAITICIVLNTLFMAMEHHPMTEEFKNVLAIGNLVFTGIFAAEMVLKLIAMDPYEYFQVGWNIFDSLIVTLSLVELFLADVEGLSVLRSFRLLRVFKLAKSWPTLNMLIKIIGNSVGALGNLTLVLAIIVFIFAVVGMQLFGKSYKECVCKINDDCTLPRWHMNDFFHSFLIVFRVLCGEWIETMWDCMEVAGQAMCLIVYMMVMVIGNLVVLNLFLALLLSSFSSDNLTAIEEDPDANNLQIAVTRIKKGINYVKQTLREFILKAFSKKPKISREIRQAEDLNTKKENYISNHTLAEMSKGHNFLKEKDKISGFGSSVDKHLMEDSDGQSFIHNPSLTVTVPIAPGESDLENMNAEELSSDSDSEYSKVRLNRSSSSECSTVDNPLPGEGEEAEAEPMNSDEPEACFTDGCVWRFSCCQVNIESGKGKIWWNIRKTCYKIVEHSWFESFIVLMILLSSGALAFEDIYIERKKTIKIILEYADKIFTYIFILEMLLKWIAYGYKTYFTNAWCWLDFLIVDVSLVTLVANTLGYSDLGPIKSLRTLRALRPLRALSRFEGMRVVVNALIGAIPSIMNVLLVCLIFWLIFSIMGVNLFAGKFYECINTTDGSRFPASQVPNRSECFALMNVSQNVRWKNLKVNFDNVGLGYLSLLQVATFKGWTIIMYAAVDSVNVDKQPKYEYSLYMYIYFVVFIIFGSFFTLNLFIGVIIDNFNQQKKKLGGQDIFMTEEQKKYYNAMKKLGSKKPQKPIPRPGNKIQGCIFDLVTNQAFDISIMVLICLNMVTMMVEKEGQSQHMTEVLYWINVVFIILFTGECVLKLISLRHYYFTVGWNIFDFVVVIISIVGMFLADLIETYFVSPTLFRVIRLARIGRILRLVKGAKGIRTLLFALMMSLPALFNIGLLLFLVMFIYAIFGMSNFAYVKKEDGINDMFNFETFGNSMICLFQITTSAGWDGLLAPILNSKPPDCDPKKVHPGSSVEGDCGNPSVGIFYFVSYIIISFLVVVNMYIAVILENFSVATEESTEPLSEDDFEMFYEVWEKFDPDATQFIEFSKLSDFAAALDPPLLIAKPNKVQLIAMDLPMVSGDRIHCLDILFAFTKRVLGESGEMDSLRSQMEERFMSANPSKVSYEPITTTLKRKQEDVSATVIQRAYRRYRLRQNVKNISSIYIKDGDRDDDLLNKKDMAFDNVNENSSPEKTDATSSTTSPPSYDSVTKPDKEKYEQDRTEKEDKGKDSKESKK

Structure (SMILES)	pIC50
Cc1cc(Nc2ccc(S(=O)(=O)Nc3nccs3)c(C(F)(F)F)c2)n(-c2ccccc2)n1 [Compound 272, 4-(3-methyl-1-phenyl-1H-pyrazol-5-ylamino)-N-(thiazol-2-yl)-2-(trifluoromethyl)benzenesulfonamide]	< 6.00
Cn1nc(Cc2ccc(Cl)cc2)c(C(N)=O)c1Nc1ccc(S(=O)(=O)Nc2nccs2)cc1 [Compound 121, 3-(4-chlorobenzyl)-1-methyl-5-(4-(N-thiazol-2-ylsulfamoyl)phenylamino)-1H-pyrazole-4-carboxamide]	< 6.00
Cc1nn(C(C)(C)C)c(Nc2ccc(S(=O)(=O)Nc3nccs3)cc2)c1-c1ccccc1 [Compound 123, 4-(1-tert-butyl-3-methyl-4-phenyl-1H-pyrazol-5-ylamino)-N-(thiazol-2-yl)benzenesulfonamide]	< 6.00
Cc1cccc(NS(=O)(=O)c2ccc(Nc3ccn(Cc4ccc(Cl)cc4)n3)cc2F)n1 [Compound 259, 4-(1-(4-chlorobenzyl)-1H-pyrazol-3-ylamino)-2-fluoro-N-(6-methylpyridin-2-yl)benzenesulfonamide]	< 5.52
Cc1cc(Nc2ccc(S(=O)(=O)Nc3nnc(-c4ccccc4)s3)c(F)c2)n(-c2ccccc2)n1 [Compound 241, 2-fluoro-4-(3-methyl-1-phenyl-1H-pyrazol-5-ylamino)-N-(5-phenyl-1,3,4-thiadiazol-2-yl)benzenesulfonamide]	5.00 to 5.70
O=S(=O)(Nc1nccs1)c1ccc(Nc2nc3ccccc3s2)cc1 [Compound 117, 4-(benzo[d]thiazol-2-ylamino)-N-(thiazol-2-yl)benzenesulfonamide]	< 6.00

Now from value to compound:

pIC50	Structure (SMILES)
> 5.70	COc1ccccc1-n1nc(C(C)(C)C)cc1Nc1ccc(S(=O)(=O)Nc2nccs2)c(F)c1 [Compound 214, 4-(3-tert-butyl-1-(2-methoxyphenyl)-1H-pyrazol-5-ylamino)-2-fluoro-N-(thiazol-2-yl)benzenesulfonamide]
5.00 to 5.70	Cc1cc(Nc2ccc(S(=O)(=O)Nc3nccs3)cc2)n(-c2ccc(Cl)cc2)n1 [Compound 137, 4-(1-(4-chlorophenyl)-3-methyl-1H-pyrazol-5-ylamino)-N-(thiazol-2-yl)benzenesulfonamide]
> 5.70	Cc1cc(Nc2ccc(S(=O)(=O)Nc3nccs3)cc2F)n(-c2ccccc2F)n1 [Compound 203, 3-fluoro-4-(1-(2-fluorophenyl)-3-methyl-1H-pyrazol-5-ylamino)-N-(thiazol-2-yl)benzenesulfonamide]
5.00 to 5.70	Cc1cc(Nc2ccc(S(=O)(=O)Nc3ncc(Cl)s3)cc2)n(-c2ccccc2)n1 [Compound 163, N-(5-chlorothiazol-2-yl)-4-(3-methyl-1-phenyl-1H-pyrazol-5-ylamino)benzenesulfonamide]
> 5.70	Cc1cc(Nc2ccc(S(=O)(=O)Nc3nccs3)c(F)c2)n(-c2cc(F)ccc2C)n1 [Compound 186, 2-fluoro-4-(1-(5-fluoro-2-methylphenyl)-3-methyl-1H-pyrazol-5-ylamino)-N-(thiazol-2-yl)benzenesulfonamide]
5.00 to 5.70	O=S(=O)(Nc1nccs1)c1ccc2nn(CCCCc3ccccc3)cc2c1 [Compound 279, 2-(4-phenylbutyl)-N-(thiazol-2-yl)-2H-indazole-5-sulfonamide]
> 5.70	COc1ccc(Cn2ccc(Nc3ccc(S(=O)(=O)Nc4nccs4)c(F)c3)n2)cc1 [Compound 224, 2-fluoro-4-(1-(4-methoxybenzyl)-1H-pyrazol-3-ylamino)-N-(thiazol-2-yl)benzenesulfonamide]
> 5.70	COc1ccccc1-n1nc(C)cc1Nc1ccc(S(=O)(=O)Nc2nccs2)cc1F [Compound 215, 3-fluoro-4-(1-(2-methoxyphenyl)-3-methyl-1H-pyrazol-5-ylamino)-N-(thiazol-2-yl)benzenesulfonamide]
> 5.70	CC(C)(C)n1nc(Cc2cccc(Cl)c2)cc1Nc1ccc(S(=O)(=O)Nc2nccs2)cc1F [Compound 195, 4-(1-tert-butyl-3-(3-chlorobenzyl)-1H-pyrazol-5-ylamino)-3-fluoro-N-(thiazol-2-yl)benzenesulfonamide]
